Data set [1] has as its target Histamine H2 receptor (Cavia porcellus) (UniProt P47747). Description: Histamine H2 receptor blocking activity was determined in the isolated guinea pig right atrium against histamine stimulated tachycardia. Type of data set: tissue-based. To be noted: Cardiac atrium.
Data set [2] in a line: Partition coefficient (logD) (octanol/borax buffer). It is filed as physicochemical.

Sequence of Histamine H2 receptor (Cavia porcellus) (P47747 whole entry): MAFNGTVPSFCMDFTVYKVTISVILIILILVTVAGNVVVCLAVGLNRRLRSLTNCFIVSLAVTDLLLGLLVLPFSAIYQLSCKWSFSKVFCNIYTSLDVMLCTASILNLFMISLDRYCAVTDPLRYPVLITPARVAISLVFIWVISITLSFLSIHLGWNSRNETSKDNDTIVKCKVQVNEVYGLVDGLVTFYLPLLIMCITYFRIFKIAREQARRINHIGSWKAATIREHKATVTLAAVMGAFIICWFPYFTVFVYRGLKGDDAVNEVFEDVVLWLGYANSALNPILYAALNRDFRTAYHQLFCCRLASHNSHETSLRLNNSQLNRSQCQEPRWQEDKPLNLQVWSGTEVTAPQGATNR

In data set [1], `C/N=C(/NCCSCc1[nH]cnc1C)N[N+](=O)[O-]` showed a -Log KB of 5.84.
Regarding `Cc1[nH]cnc1CSCCNc1nccc(O)c1[N+](=O)[O-]`, the logD (as a rule, the decadic logarithm of the distribution of all forms, ionised or not, between an organic phase and buffer at a given pH) in data set [2] is -0.2. This molecule also came in with a -Log KB in data set [1] of 6.44.
The molecule `CNC(=N[N+](=O)[O-])NCCSCc1nc[nH]c1C` had a logD in data set [2] of 0.13.
Turning to `Cc1[nH]cnc1CSCCNc1cccc(O)n1`, the log distribution coefficient (logD) in data set [2] amounted to 0.79. In addition, the -Log KB in data set [1] was < 4.
For the molecule `CNC(=S)NCCSCc1[nH]cnc1C`, the -Log KB in data set [1] worked out at 6.04.
As to `Cc1[nH]cnc1CSCCNc1cc(O)ccn1`, in data set [2], the pH-dependent lipophilicity (logD) was found to be 0.8. Further, the -Log KB in data set [1] stood at 4.8.
As to `Cc1[nH]cnc1CSCCNC1=NC(=O)CN1`, in data set [2], the pH-dependent lipophilicity (logD) is -0.5. Besides, the -Log KB in data set [1] amounted to 4.21.
With `C/N=c1\c(O)c(O)\c1=N\CCSCc1[nH]cnc1C`, the pH-dependent lipophilicity (logD) in data set [2] was -0.08. In data set [1], this molecule gave a -Log KB of 4.23.
For the molecule `Cc1[nH]cnc1CSCCNc1[nH]ccc1[N+](=O)[O-]`, the logD in data set [2] was 1.04. Further, the -Log KB in data set [1] came out at 7.31.
The matching figures for `Cc1[nH]cnc1CSCCNc1nccc(O)n1`: 0.02 and 5.13.
The matching figures for `Cc1[nH]cnc1CSCCNC1=NCCS(=O)(=O)N1`: -0.74 and 4.57.
As to `Cc1[nH]cnc1CSCCNc1ccnc(O)n1`, in data set [2], the pH-dependent lipophilicity (logD) was -0.4. Besides, the -Log KB in data set [1] is < 4.5.
Turning to `CN/C(=C/[N+](=O)[O-])NCCSCc1[nH]cnc1C`, the pH-dependent lipophilicity (logD) in data set [2] is -0.4. Further, the -Log KB in data set [1] is 5.85.
On to `Cc1[nH]cnc1CSCCNC1=C([N+](=O)[O-])CCN1`, for which, in data set [2], the logD was -0.87. The molecule further gave a -Log KB in data set [1] of 6.31.
With `C/N=C(\S)NCCSCc1[nH]cnc1C` [METIAMIDE], the pH-dependent lipophilicity (logD) in data set [2] amounted to 0.55.
Consider `CNC(=O)NCCSCc1[nH]cnc1C`, for which the logD in data set [2] is -0.06. The molecule also came in with a -Log KB in data set [1] of 4.69.

Values taken from ChEMBL document CHEMBL1123209, “Dipole moment in relation to H2 receptor histamine antagonist activity for cimetidine analogues” (J Med Chem, 1986).
